Source: PMC7278776, “Multidrug Resistance Modulation Activity of Silybin Derivatives and Their Anti-Inflammatory Potential” (Antioxidants, 2020)
Marks after values point to notes of the source that are not given here.

Columns and labels:
IL-6 = IL-6 release by LPS-induced macrophages (ELISA); type: cell-based, mouse; conditions: for IL-6 (pg/mL): untreated LPS control 1148 ± 35
Procedure: To determine the level of inflammatory cytokine IL-6, macrophages were cultivated with LPS (1 µg/mL) and the tested compounds (7–50 µM) for 6 h. After incubation, the plates were centrifuged (1000× g; 10 min, 4 °C) and then the medium was removed and frozen to −80 °C. Prior to the detection, the samples were diluted in ELISA diluent in a 1:10 ratio. Production of the cytokine was determined by uncoated ELISA performed according to the manufacturer’s instructions.

human recombinant P-gp = target: T1, human recombinant P-gp (Homo sapiens, UniProt P08183); assay: biochemical
T1 construct: purchased Promega
T1 sequence (P08183 whole entry): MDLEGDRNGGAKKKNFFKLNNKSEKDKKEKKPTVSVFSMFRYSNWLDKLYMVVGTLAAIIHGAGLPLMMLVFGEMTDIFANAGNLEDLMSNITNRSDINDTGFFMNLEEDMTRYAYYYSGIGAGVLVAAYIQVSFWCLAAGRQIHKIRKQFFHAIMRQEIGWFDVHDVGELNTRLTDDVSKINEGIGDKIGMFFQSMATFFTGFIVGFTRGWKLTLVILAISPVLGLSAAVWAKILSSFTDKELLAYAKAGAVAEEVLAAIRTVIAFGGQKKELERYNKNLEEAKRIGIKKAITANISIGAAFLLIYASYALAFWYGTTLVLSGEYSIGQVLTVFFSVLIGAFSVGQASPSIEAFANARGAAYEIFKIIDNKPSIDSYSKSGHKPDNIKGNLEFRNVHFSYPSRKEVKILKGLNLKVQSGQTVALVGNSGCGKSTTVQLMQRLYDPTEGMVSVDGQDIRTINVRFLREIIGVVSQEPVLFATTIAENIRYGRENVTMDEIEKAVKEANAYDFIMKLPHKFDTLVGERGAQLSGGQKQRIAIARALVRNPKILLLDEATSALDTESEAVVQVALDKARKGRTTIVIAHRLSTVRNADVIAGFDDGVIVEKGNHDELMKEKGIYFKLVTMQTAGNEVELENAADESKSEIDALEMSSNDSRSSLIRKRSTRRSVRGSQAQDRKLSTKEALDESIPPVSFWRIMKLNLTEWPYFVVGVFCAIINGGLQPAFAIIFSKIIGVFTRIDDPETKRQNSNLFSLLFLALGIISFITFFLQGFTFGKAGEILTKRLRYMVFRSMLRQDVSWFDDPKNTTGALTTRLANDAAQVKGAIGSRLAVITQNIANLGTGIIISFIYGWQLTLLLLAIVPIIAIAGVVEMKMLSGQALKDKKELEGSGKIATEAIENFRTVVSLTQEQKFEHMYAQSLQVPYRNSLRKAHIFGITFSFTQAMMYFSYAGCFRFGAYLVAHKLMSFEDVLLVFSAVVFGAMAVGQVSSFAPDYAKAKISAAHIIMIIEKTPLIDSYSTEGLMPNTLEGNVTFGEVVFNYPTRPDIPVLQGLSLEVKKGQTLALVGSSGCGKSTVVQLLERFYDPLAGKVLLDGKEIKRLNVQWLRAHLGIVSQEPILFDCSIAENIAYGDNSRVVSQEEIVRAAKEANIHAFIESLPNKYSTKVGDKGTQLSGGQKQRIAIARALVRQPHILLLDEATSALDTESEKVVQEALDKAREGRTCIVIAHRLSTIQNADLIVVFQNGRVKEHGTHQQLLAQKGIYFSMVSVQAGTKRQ
Procedure: The procedure and the dilution of the reagents were performed according to the manufacturer’s instructions. Briefly, the human recombinant P-gp-containing membrane (25 µg) was mixed in a 96-well plate with P-gp–Glo™ Assay buffer (control), verapamil (P-gp substrate, positive control, 0.2 mM), Na3VO4 (P-gp inhibitor, negative control, 0.1 mM), ATP standards (to construct the calibration curve, 0.375–3 mM) or samples (2.5 µL, in the concentration range 0.7–20 mM). After that, MgATP (5 mM) was added to total volume of 50 µL to each well to initiate the ATPase reaction. The plate was incubated for 1 h at 37 °C. Thereafter, the reaction was stopped by adding 50 µL of ATP detection reagent and incubated at room temperature for 20 min. The remaining non-metabolized ATP was detected as a luciferase-generated signal.
Using linear regression, the standard ATP curve was designed, and by subsequent interpolation of relative luminescence (RLU) of standards, the amount of ATP consumed in the samples was recalculated according to the manufacturer’s guidelines.

A2780/DOX = assay: Sensitization of the MDR cell line to doxorubicin; type: cell-based, human
Procedure: A multidrug resistant ovarian sub-line resistant to doxorubicin (A2780/DOX, Sigma-Aldrich) was cultivated in DMEM medium with 10% FBS and 1 × antibiotic antimycotic solution. Every other passage, doxorubicin at the final concentration of 0.1 µM was added to the culture medium to maintain the resistance of the cell line. To perform experiments, the cells were seeded at 1 × 10^5 cell/mL into the wells of a 96-well plate and incubated for 24 h. Afterwards, the cells were washed with PBS and fresh DMEM medium with tested compounds at 10, 20 and 30 µM were added to each well, except for the control wells. Subsequently, the cells were exposed to increasing concentrations of doxorubicin (0.6–20 µM) for 72 h. After incubation, the resazurin assay was performed as described above. The IC50 of doxorubicin was calculated for both the control and the samples and the fold change was counted up. […] The fold change lower than 1 means an antagonistic effect. (1) FOLD CHANGE=IC50 value of DOX cells treated with chemotherapeutic /IC50 value of DOX cells treated with chemotherapeutic and compound

ABCA5 = ABCA5 mRNA expression (real-time PCR); type: cell-based, human; conditions: A2780/DOX, 10 µM combined with doxorubicin at IC25, 48 h
Procedure: (§1) The A2780/DOX cell line was seeded into 5 cm Petri dishes with DMEM medium at 1 × 10^5 cell/mL. After 24 h, the dishes were washed with PBS and new DMEM medium supplemented with doxorubicin (at concentration equal to IC25) and samples (10 µM) were added. After 48 h of treatment, the cells were washed with PBS and harvested using the standard trypsin-EDTA procedure. The harvested cells were centrifuged (3200× g; 10 min, 4 °C). The supernatant was discarded, and the pellets were washed with 1.5 mL of cooled PBS (5400× g; 10 min, 4 °C). The washing step was repeated with 1 mL of PBS and the cells were centrifuged again (10,000× g; 3 min, 4 °C). Afterwards, the pellets were resuspended in 1 mL of Trizol (Invitrogen, Carlsbad, CA, USA) and transferred into pre-cooled RNase-free microfuge tubes. The samples were stored at −80 °C.
(§2) A Quant-iT RiboGreen RNA Assay Kit (Invitrogen) was used to determine the RNA concentration using the Infinite M200 plate reader (Tecan, Männedor, Switzerland). The cDNA was prepared from 0.5 µg of total RNA using a RevertAid First Strand Synthesis cDNA Kit (MBI Fermentas, Vilnius, Lithuania). The amplification of the ubiquitin C gene fragment was used to determine the quality of cDNA.
(§3) The experiment was performed using the ViiA7 Real-Time polymerase chain reaction (PCR) System (Life Technologies, Camarillo, CA, USA) with a 384-well block. Before quantitative real-time PCR, the master mix was prepared by mixing 2 µL of 8 × diluted cDNA, 1.75 µL of RNase free water, 1 µL of 5 × HotFIREPol Probe quantitative PCR Mix Plus (Solis Biodyne, Tartu, Estonia) and 0.25 µL of specific 20 × TaqMan Gene Expression Assay (Life Technologies), giving 5 µL of final reaction volume. Cycling parameters were: initial hold at 50 °C for 2 min and denaturation at 95 °C for 10 min, followed by 45 cycles consisting of denaturation at 95 °C for 15 s and annealing/extension at 60 °C for 1 min. After each extension phase, the fluorescence values were acquired. Duplicate samples were used for measurement and samples with a standard deviation of duplicates > 1.0 cycle threshold (Ct) were re-analyzed. The real time PCR procedure was maintained according to MIQE (Minimum information for publication of quantitative real-time PCR experiments) guidelines. The software REST 2009 (Qiagen, Hilden, Germany) served to compare relative transcript levels of genes in the cell line.

acetylcholinesterase = acetylcholinesterase (Homo sapiens, UniProt P22303); assay: Acetylcholinesterase activity, Ellman colorimetric method; type: biochemical
Sequence of acetylcholinesterase (P22303 32-614, species assumed): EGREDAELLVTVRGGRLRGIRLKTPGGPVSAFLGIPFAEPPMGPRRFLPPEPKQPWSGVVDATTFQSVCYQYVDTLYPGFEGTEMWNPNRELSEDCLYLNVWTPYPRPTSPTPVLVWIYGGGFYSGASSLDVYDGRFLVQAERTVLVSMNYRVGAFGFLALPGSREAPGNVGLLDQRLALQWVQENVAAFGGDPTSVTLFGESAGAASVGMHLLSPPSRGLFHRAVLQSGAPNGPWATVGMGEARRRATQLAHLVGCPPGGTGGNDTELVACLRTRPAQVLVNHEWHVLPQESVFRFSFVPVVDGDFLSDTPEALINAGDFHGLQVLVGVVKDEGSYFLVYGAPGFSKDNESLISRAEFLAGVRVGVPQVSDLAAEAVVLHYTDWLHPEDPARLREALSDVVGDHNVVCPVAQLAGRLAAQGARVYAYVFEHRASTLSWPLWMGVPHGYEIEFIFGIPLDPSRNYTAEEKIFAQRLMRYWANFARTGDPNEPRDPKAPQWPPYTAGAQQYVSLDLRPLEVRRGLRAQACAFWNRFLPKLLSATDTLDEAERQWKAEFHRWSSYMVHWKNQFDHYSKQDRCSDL
Procedure: The activity of acetylcholinesterase was measured by the Ellman colorimetric method. A stock solution of acetylcholinesterase was prepared in PBS (0.057 U/mL), 100× diluted and stored in a freezer (−20 °C). Further, the solution of DTNB (5,5′-dithio-bis-2-nitrobenzoic acid, 50 µM) and ATC ([…], 50 µM) was prepared. […] Afterwards, 10 µL of DNTB and ATC solution was added, and the reaction was launched. After the addition of reagents, the absorbance at 412 nm was recorded for 10 min every minute.

ABCB10 = ABCB10 mRNA expression (real-time PCR); type: cell-based, human; conditions: A2780/DOX
Procedure: as §1, with “After 24 h, the dishes were washed with PBS and new DMEM medium supplemented with doxorubicin (at concentration equal to IC25) and samples (10 µM) were added.” left out
as §2, §3

ABCG4 = ABCG4 mRNA expression (real-time PCR); type: cell-based, human; conditions: for ABCG4 Expression Difference / ABCG4 Treated vs. Untreated: A2780/DOX
Procedure: as §1, with “After 24 h, the dishes were washed with PBS and new DMEM medium supplemented with doxorubicin (at concentration equal to IC25) and samples (10 µM) were added.” left out
as §2, §3

ABCG1 = ABCG1 mRNA expression (real-time PCR); type: cell-based, human; conditions: A2780/DOX, 10 µM combined with doxorubicin at IC25, 48 h
Procedure: as §1, §2, §3

ABCC5 = ABCC5 mRNA expression (real-time PCR); type: cell-based, human; conditions: A2780/DOX, 10 µM, 48 h, without doxorubicin
ABCE1 = ABCE1 mRNA expression (real-time PCR); type: cell-based, human; conditions: A2780/DOX, 10 µM, 48 h, without doxorubicin
Procedure: as §1, §2, §3

[1] = 10 µM combined with doxorubicin at IC25, 48 h
[2] = 10 µM, 48 h, without doxorubicin

SMILES | IL-6 (pg/mL) (IL-6; compound 7 µM) | IL-6 (pg/mL) (IL-6; compound 15 µM) | IL-6 (pg/mL) (IL-6; compound 50 µM) | IC50 (human recombinant P-gp) | Doxorubicin-sensitization rate (ratio of IC50 of doxorubicin and doxorubicin + tested compound) (A2780/DOX; compound 10 µM) | Doxorubicin-sensitization rate (ratio of IC50 of doxorubicin and doxorubicin + tested compound) (A2780/DOX; compound 20 µM) | Doxorubicin-sensitization rate (ratio of IC50 of doxorubicin and doxorubicin + tested compound) (A2780/DOX; compound 30 µM) | ABCA5 Expression Difference (ABCA5) | IC50 (acetylcholinesterase) | ABCB10 Expression Difference (ABCB10; [1]) | ABCB10 Expression Difference (ABCB10; [2]) | downregulation of ABCG4 expression (ABCG4; [2]) | ABCG4 Expression Difference (ABCG4; [1]) | ABCG4 Expression Difference (ABCG4; [2]) | ABCG4 Treated vs. Untreated (ABCG4; [2]) | ABCG1 Expression Difference (ABCG1) | other results
COc1cc([C@H]2Oc3cc(-c4oc5cc(O)cc(O)c5c(=O)c4O)ccc3O[C@@H]2CO)ccc1O [Dehydrosilybin A, 2,3-dehydrosilybin A] | 292 ± 15 ^a pg/mL | 79 ± 8 ^a pg/mL | 0 ± 0 ^a pg/mL | 60.7 ± 10 µM | (2.1 ± 0.3) × | (2.5 ± 0.2) × | (9.5 ± 0.7) × | 1.223 | 6.9 ± 0.6 µM | 1.020 | 1.236 | 5% | 1.992 | 0.950 | DOWN | 2.714 | IL-6 (pg/mL) (IL-6; compound 50 µM, listed as dehydrosilybin A): under the detection limit of the ELISA assay; IL-6 modulation effect higher in comparison with its diastereomeric mixture (IL-6; vs dehydrosilybin AB): approximately 70%; Doxorubicin-sensitization rate (ratio of IC50 of doxorubicin and doxorubicin + tested compound) (A2780/DOX; compound 30 µM, listed as dehydrosilybin A): ~10 ×
COc1cc(C2Oc3cc(-c4oc5cc(O)cc(O)c5c(=O)c4O)ccc3OC2CO)ccc1O (stereo not shown) [Dehydrosilybin AB, 2,3-dehydrosilybin] | 997 ± 41 ^d pg/mL | 441 ± 19 ^d pg/mL | 0 ± 0 ^a pg/mL | 21.1 ± 0.6 µM | (2.4 ± 0.2) × |  |  | 1.254 | 2.7 ± 0.3 µM | 1.119 | 1.589 |  | 2.008 | 1.162 |  | 1.826 | IL-6 (pg/mL) (IL-6; compound 50 µM, listed as dehydrosilybin AB): under the detection limit of the ELISA assay; inhibition of acetylcholinesterase activity relative to single isomers (acetylcholinesterase): 2.5 ×; ABCC5 Expression Difference (ABCC5): 1.519; ABCE1 Expression Difference (ABCE1): 1.408
COc1cc([C@@H]2Oc3cc(-c4oc5cc(O)cc(O)c5c(=O)c4O)ccc3O[C@H]2CO)ccc1O [Dehydrosilybin B, 2,3-dehydrosilybin B] | 582 ± 19 ^c pg/mL | 301 ± 9 ^c pg/mL | 122 ± 3 ^b,c pg/mL | 40.7 ± 3.8 µM | (2.0 ± 0.1) × |  |  | 1.707 | 6.8 ± 0.8 µM | 1.221 | 1.186 | 26% | 2.860 | 0.736 | DOWN | 2.931 | 
COc1cc([C@H]2Oc3cc([C@H]4Oc5cc(O)cc(O)c5C(=O)[C@@H]4O)ccc3O[C@@H]2CO)ccc1O [Silybin A, silybin A] | 422 ± 42 ^b pg/mL | 271 ± 15 ^c pg/mL | 125 ± 16 ^c pg/mL | 43.1 ± 6.4 µM | (1.3 ± 0.1) × | (1.6 ± 0.2) × | (1.9 ± 0.1) × | 2.427 | 181 ± 6.1 µM | 1.060 | 1.136 |  | 4.751 | 1.185 |  |  | IC50 (IL-6; Mus musculus, RAW264.7, RAW 264.7, LPS + compound 6 h, read-out: IL-6, concentration necessary to halve the release (IC50)): 8.4 ± 0.3 µM; Doxorubicin-sensitization rate (ratio of IC50 of doxorubicin and doxorubicin + tested compound) (A2780/DOX; compound 50 µM): (3.6 ± 0.3) ×
